From US20220023269A1, “Methods Of Treating Diabetes In Severe Insulin-Resistant Diabetic Subjects” (Balticgruppen Bio AB, priority 2018, published 2022)

Tests used:
Type in all cases: in vivo
[1] = system: aged, lean B6 mice; assay: Treadmill endurance test; conditions: 20 mg/kg/day gavage, 30 days
Method: One week prior to the test mice went through a familiarization session of 5 minutes on the treadmill. Running protocol as follows: 15 minutes at 18.8 m/minute, 5 minutes at 24.4 m/minute and 27.1 m/minute until exhaustion. At exhaustion, blood lactate levels were measured using a lactate test meter (Arkray).

[2] = Pharmacokinetics in mice and rats (plasma, liver, brain); conditions: rodents
Method: Pharmacokinetics of the test material in C57BL/6JBomTac mice and NTac:SD rats were determined via UHPLC-ESI Triple Quad MSMS in plasma from non-fasted animals. The test material (40 mg/kg test material) was administered via oral gavage and 4-, 8-, 12- and 24-hours after administration blood was collected. Test material levels were determined in liver and brain from non-fasted Crl:CD (SD) rats administered the test material (40 mg/kg test material), once daily for 3 weeks, via oral gavage. The test material was extracted in acetonitrile and levels determined using UHPLC-ESI Triple Quad MSMS.

[3] = system: CBA mice on HFD (DIO mice); assay: CBA mice on test material-HFD (0.4, 0.8, 2 mg/g) for 7 w
Method: 12 weeks old CBA mice were randomised into a HFD and three test material-HFD groups (0.4 mg/g, 0.8 mg/g, and 2 mg/g) for 7 weeks. 16-17 weeks old CBA mice on regular diet was used as controls where indicated.
Animals were housed at 12:12 hour light/dark cycle in a temperature/humidity controlled (22° C./50% humidity) room and ad libitum feeding with either standard chow (Special Diet Service #801730), high fat diet (HFD) (Research diets, Inc. #D12492) or HFD (Research diets, Inc. #D12492) custom formulated with test material at 2 mg/g test material, 0.8 mg/g test material and 0.4 mg/g test material, respectively.
All cell lines were lysed in 0.1 M Tris-HCl, pH 6.8, 2% SDS, 10 mM sodium fluoride (SIGMA #S7920), 10 mM β-glycerophosphate (SIGMA #G6376), and 1 mM sodium vanadate (SIGMA #72060) and supernatant collected after 1 minute at 14,000 rpm. Islets (human and mouse) were lysed in 0.1 M Tris-HCl, pH 6.8, 2% SDS, protease inhibitor (Roche #04 693 124 001) and phosphatase inhibitor (Roche #04 906 837 001). Right calf muscle, heart, iWAT, and interscapular BAT was crushed in a pestle using liquid nitrogen and homogenised in ice cold RIPA buffer (150 mM sodium chloride (SIGMA #S7653), 1.0% NP40 (USB), 0.5% sodium deoxycholate (SIGMA #D6750), 0.1% SDS, 50 mM Tris pH 8.0, 20 mM sodium pyrophosphate (SIGMA #71515), 10 mM sodium fluoride, 10 mM β-glycerolphosphate, 1 mM sodium vanadate and protease inhibitor cocktail (Roche #04693124001), 1 tablet/10 ml lysis buffer). The supernatant was collected after 2 min at 14,000 rpm. This procedure was repeated until all fat was eliminated and the supernatant was clear, at 4° C. Samples were analysed on 4-15% polyacrylamide gels. Values were normalised toward AMPKα, β-Actin, GAPDH or the respective non-phosphorylated counterpart. […]

[4] = system: conscious beagle dogs; assay: Cardiovascular safety pharmacology study using radiotelemetry in conscious beagle dogs; conditions: single oral doses 60, 180, 540 mg/kg
Method: Telemetry analyses was performed by CiToxLAB North America (Laval, Quebec, Canada) in adult male beagle dogs, selected from CiToxLAB North America Dog Telemetry Colony, which had previously undergone surgery for telemetry transmitter implantation to monitor the arterial blood pressure, electrocardiogram, body temperature and locomotor activity (Data Science International, Model D70-PCT). All surgical procedures were performed in accordance with relevant Standard Operating Procedures. A telemetry transmitter was placed between the internal abdominal oblique muscle and the aponeurosis of the transverses abdominis of each animal. The pressure catheter was inserted into the femoral artery and the biopotential leads subcutaneously in a Lead II configuration. Test material was gavaged as a suspension at 60, 180, or 540 mg/kg.

[5] = system: DIO mice; assay: Prevention of dysglycemia and insulin resistance in DIO B6 mice (oral gavage, 8 w); conditions: 100 mg/kg/day each
Method: MATSUDA index was calculated via: […] […] All cell lines were lysed in 0.1 M Tris-HCl, pH 6.8, 2% SDS, 10 mM sodium fluoride (SIGMA #S7920), 10 mM β-glycerophosphate (SIGMA #G6376), and 1 mM sodium vanadate (SIGMA #72060) and supernatant collected after 1 minute at 14,000 rpm. Islets (human and mouse) were lysed in 0.1 M Tris-HCl, pH 6.8, 2% SDS, protease inhibitor (Roche #04 693 124 001) and phosphatase inhibitor (Roche #04 906 837 001). […] The supernatant was collected after 2 min at 14,000 rpm. This procedure was repeated until all fat was eliminated and the supernatant was clear, at 4° C. Samples were analysed on 4-15% polyacrylamide gels. Values were normalised toward AMPKα, β-Actin, GAPDH or the respective non-phosphorylated counterpart. For RNA purification calf muscle, iWAT, interscapular BAT, and left lateral liver lobe was crushed in a pestle using liquid nitrogen before turning to respective RNA kit. RNA from liver was prepared using Total RNA isolation Nucleospin II Kit (Macherey-Nagel #740955.50). RNA from adipose tissue was prepared using RNeasy Lipid Tissue Mini kit (Qiagen #74804). RNA from calf muscle tissue was prepared using RNeasy Fibrous Tissue Mini kit (Qiagen #74704). First strand cDNA synthesis was done using SuperScript III (First-Strand Synthesis SuperMix for qRT-PCR, Invitrogen #11752-250) according to the manufacturer's instructions. Total RNA was prepared from isolated islets using RNeasy Micro Kit (Qiagen #74004) and first strand cDNA synthesis was done using Superscript III (Invitrogen #18080-051) according to the manufacturer's instructions. Quantification of mRNA expression levels was performed essentially as previously described (Reference 3).

[6] = 0.4, 0.8 and 2 mg/g in HFD, 6 w

blood-brain barrier crossing [2]: does not cross the blood-brain barrier
oral availability [2]: orally available
plasma half-life [2]: long
SMILES: O=C(Nc1nc(=O)n(Cc2ccc(Cl)cc2)s1)c1ccc(Cl)cc1 [test material, 4-chloro-N-[2-[(4-chlorophenyl)methyl]-3-oxo-1,2,4-thiadiazol-5-yl]benzamide]
blood lactate levels after endurance test [1]: significantly reducing the increase in blood lactate levels
endurance capacity (running distance to exhaustion) ([1]; vs vehicle): significantly improved endurance capacity
expression of Cd36 and Cpt1b in BAT ([3]; 2 mg/g in HFD): significantly increased the expression of Cd36
expression of Fas, Scd1 and Acc1 in BAT ([3]; 2 mg/g in HFD): potently reduced the expression
weights of BAT pads ([3]; 2 mg/g in HFD, vs HFD): reduced
weights of iWAT and eWAT fat pads ([3]; 2 mg/g in HFD, vs HFD): markedly lower weights
dysglycemia (fasted blood glucose) [3, 6]: potently prevented
hyperinsulinemia (fasted insulin) [3, 6]: potently prevented
insulin resistance (HOMA-IR) [3, 6]: potently prevented
pAMPK in calf muscle ([3]; 0.4, 0.8 and 2 mg/g in HFD, 7 w): dose-dependently increased pAMPK
heart glycogen content ([3]; 0.8 or 2 mg/g in HFD, 7 w): reduced in a dose-dependent manner
heart weight/tibia length ([3]; 0.8 or 2 mg/g in HFD, 7 w): did not cause an increase in heart weight/tibia length
pAMPK levels in the heart ([3]; 0.8 or 2 mg/g in HFD, 7 w): significantly increased pAMPK levels in the heart
Cpt1b mRNA levels in liver ([3]; DIO mice): dose-dependently increased Cpt1b
hepatic steatosis ([3]; DIO mice): prevented and reduced hepatic steatosis
Acc2, Fas and Scd1 mRNA levels in liver ([3]; DIO mice, dose-dependent): decreased Acc2, Fas, and Scd1 mRNA levels
UCP1 expression in BAT and iWAT ([3]; slightly, dose-dependent): reduced UCP1 expression
Atgl mRNA levels in iWAT ([3]; test material-HFD 7 w): increased both p-S406 ATGL levels and Atgl mRNA levels
p-S406 ATGL levels in iWAT ([3]; test material-HFD 7 w): increased both p-S406 ATGL levels and Atgl mRNA levels
blood pressure (systolic and diastolic) [4]: acutely reduced blood pressure
HFD-provoked increase in fasted glucose ([5]; oral gavage, 6 w): averted the HFD-provoked increase
HFD-provoked increase in fasted plasma insulin ([5]; oral gavage, 6 w): averted the HFD-provoked increase
insulin resistance (HOMA-IR) ([5]; oral gavage, vs vehicle): did not develop insulin resistance
Glut1 mRNA levels in calf muscle ([5]; 8 w): increased Glut1 mRNA levels
Txnip mRNA levels in calf muscle ([5]; 8 w): reduced Txnip mRNA levels
pAMPK in calf muscle ([5]; 8 w): significantly increased pAMPK
